# Assay results published in a melting point compilation (Tetko et al.; mined from patent text by program, amines drawn as free bases though some values may be those of a salt).
row,Compound,melting point [°C]
1,CCCc1nc2ncnn2c(N)c1CCc1ccccc1,190 to 191
2,Cc1ccc2[nH]ncc2c1NCCN,153 to 155
3,Nc1ccc(Cl)nc1I,148
4,Cc1ccc(-c2nnc3c(n2)CCCC3)nc1-c1ccc(F)cc1,105
5,Nc1cccc(C(=O)NCCCn2ccnc2)c1,88 to 90
6,CS(=O)(=O)c1ccc(Oc2ccc(SC(F)(F)F)cc2)nc1,134 to 135
7,CCOC(=NS(C)(=O)=O)N1Cc2ccccc2-c2ccccc2C1,136 to 138
8,CCOC(=O)c1ccc(NCCCCCCCCCCCCCC[Si](C)(C)C)cc1,91 to 92
9,Cc1c(C2=C(c3cn(C)c4ccccc34)C(=O)NC2=O)c2ccccc2n1C,> 290
10,COc1ccc(Cc2nc3cccc([N+](=O)[O-])c3o2)cc1OC1CCCC1,95 to 98.5
11,N#Cc1c(Cl)[nH]c(-c2ccc(Cl)c(Cl)c2)c1Cl,> 200
12,COc1cc(C=CCN2CCc3nc(N)sc3CC2)cc(OC)c1,114 to 119
13,O=c1ccc(-c2c(-c3ccccc3)nn3ccncc23)c[nH]1,> 250
14,CCNC(CO)Cc1cn(Cc2ccccc2)cn1 (stereo unspecified),109 to 110
15,C=CCNC(=O)N1CC(Oc2ccc(F)cc2)C1,92 to 94
16,COc1cc2c(cc1OC)C(c1sc(N)nc1C)=NCC2,233 to 237
17,COc1cc2nc(SCc3ccccc3)nn2c(Cl)n1,140 to 141
18,CCCCCCCC/C=C\c1ccc(C(=O)NOCc2ccccc2)cc1,70 to 71
19,NC(=O)c1nc(-c2ccccc2)c(-c2ccc(=O)[nH]n2)s1,> 250
20,CC(C)CC1(C)C(=O)NCCN1Cc1ccccc1 (stereo unspecified),158 to 161
21,Cc1cc(-c2cnn3c(C(F)(F)F)cc(-c4ccc(C(F)(F)F)cc4)nc23)cc(C)n1,257
22,COc1ccc(C2(C#Cc3cc(N4CN=C(C)O4)cs3)CCC(=O)CC2)cc1OC1CCCC1,90 to 91
23,O=c1[nH]c2c(OC3CNC3)cccc2n1Cc1ccccc1,181 to 184

row,Compound,melting point [°C]
1,CCOC(=O)c1cc(Cl)n2nc(C)nc2n1,134 to 136
2,OCCON=Cc1ccncc1,78 to 80
3,CCC1COc2c(Cc3ccc(C(C)C)cc3)c(C)c(NC(=O)CC(C)(C)C)c(C)c21 (stereo unspecified),156 to 157
4,CCCCn1c(COCC)nc2c(N)nc3ccccc3c21,139 to 140
5,CCCc1c(OCCCOc2ccc(C(=O)NCCCCc3cccnc3)cc2)ccc(C(C)=O)c1O,133 to 134
6,N#CC1CCn2cccc21 (stereo unspecified),44 to 45
7,CCOC(=O)/C=C/c1ccc(OCOC)cc1Oc1ccc(C(F)(F)F)cn1,69 to 70
8,NCCOC(c1ccccc1)(c1ccccc1)c1ccccc1,87 to 89
9,CC(=O)SCc1nccc(SCCCSc2ccc3ncc([N+](=O)[O-])n3n2)c1C,138 to 140
10,Cn1ncnc1COc1nc2c(-c3ccccc3)nncc2cc1-c1ccccc1,222 to 223
11,Nc1sc2c(c1C(=O)c1ccco1)CCCC2,121 to 122
12,N#CCC(=O)c1ccccc1C1(c2ccccc2)OCC(CCl)O1 (stereo unspecified),107 to 110
13,Oc1cnccc1CCCOc1cccnc1Nc1cccc(Br)c1,138 to 141
14,Cc1cc(COC2CCCO2)nc(N)n1 (stereo unspecified),109 to 110
15,C1=CCC(Cc2ccc(-c3ccccc3)cc2)C1,47 to 48
16,COc1ccc(CCNC(=O)C(N)=O)cc1OCCCCO,47 to 49
17,CC(C)c1nn(-c2ccc(C(F)(F)F)cn2)cc1C=O,89 to 90
18,COc1ccc(NC(=O)c2ccccc2)cc1NC(=S)Nc1cc(Cl)cc(Cl)c1,194 to 195
19,NS(=O)(=O)C1C=CC=CC1(CCNC(=O)C=Cc1cccs1)OCc1ccccc1 (stereo unspecified),177
20,CCOC(Nc1ccccc1)(OCC)c1ccnc(C(=O)c2ccc(C)cc2)c1,95 to 96
21,Cc1ccc(S(=O)(=O)OC(=O)c2ccc(C(=O)OS(=O)(=O)c3ccc(C)cc3)cc2)cc1,170 to 176
22,Oc1ccc(Br)cc1C12CC3CC(CC(C3)C1)C2,140 to 141
23,Cc1noc(NS(=O)(=O)c2ccccc2-c2ccc(-c3ncoc3C)cc2)c1C,86 to 96

row,Compound,melting point [°C]
1,Cc1ccc(F)c2c1N(C(c1ccccc1)c1ccccc1)C(=O)C21COc2cc3c(cc21)CCO3 (stereo unspecified),81 to 82
2,Cn1nnnc1SCc1ccccc1,48.5 to 49.5
3,O=[N+]([O-])c1c(Nc2ccon2)cnc2c1COCC2,143 to 145
4,CC(=O)C(=O)N1C(C(=O)OCc2ccccc2)CC2CCCCC21 (stereo unspecified),50 to 55
5,CC1(C(=O)Nc2ccc(OCc3ccccc3)c(C(F)(F)F)c2)CC1,120 to 122
6,COc1ccc(OC)c(OCCO)c1,50 to 52
7,N#CN=c1ccccn1Cc1ccccc1,139 to 140
8,COc1ccccc1NC(=S)c1ccc(C(F)(F)F)cc1,118 to 120
9,C1=C(c2cc3ccccc3[nH]2)CCN(CCC2Cc3ccccc3C2)C1,175 to 176
10,COc1cc(/C=C2/C(=O)NC(=O)/C2=C/c2ccccc2)cc(OC)c1OC,176 to 178
11,C[Si](C)(C)c1ccc2c(c1)Cc1cc([Si](C)(C)C)ccc1-2,117 to 118
12,COCCOn1nnc2ccc(Cn3ccnc3)cc21,77
13,CN(C)c1cccc(OC(=O)NC2C(=O)N(CC34CC5CC(CC(C5)C3)C4)c3ccccc3N(c3ccccc3)C2=O)c1 (stereo unspecified),130 to 132
14,N#CC1=C2C=CC=c3ccccc3=C2CC=C1,109 to 111
15,Brc1cccc(OCCOc2nccnc2N2CCNCC2)c1,62 to 63
16,OCC1OC(n2cnc3c(NCc4ccc(Br)cc4)ncnc32)C(O)C1O (stereo unspecified),179
17,COCOc1cc(Cl)ccc1-c1cc(-c2cccc(C(=O)OC)c2)c(C#N)c(N)n1,159 to 160
18,Nc1cccc2c3c([nH]c12)C(=O)CCC3,233 to 234
19,N#Cc1cnc2c(c1Nc1ccc(Oc3ccccc3)cc1)C=C1N=CN=C1C2,> 270
20,O=C(O)C1CCN(c2ncc(NS(=O)(=O)c3ccc(Br)cc3)c(NCc3ccccc3)n2)CC1,136 to 138
21,CCOS(=O)(=O)c1nc2nc(C)cc(Cl)n2n1,166 to 169
22,CCOC(=O)/C=C/c1cnc(-c2ccc(OCc3ccccc3)c(C34CC5CC(CC(C5)C3)C4)c2)cn1,145 to 148

# Now from value to molecule:
row,melting point [°C],Compound
1,160 to 162,CC(O)c1ccc(N)c(S(N)(=O)=O)c1 (stereo unspecified)
2,115 to 121,O=C=Nc1cccc(-c2nc3ccccc3c(=O)o2)c1
3,91 to 93,CC(Cl)OC(=O)Oc1c(Br)cc(C#N)cc1Br (stereo unspecified)
4,173,C=COC(=O)N=c1sc2cc(OC(F)(F)F)ccc2n1CCSC(C)=O
5,143 to 145,CC(=O)C1=C(O)C(=C(C)Nc2ccccc2Cl)C(=O)OC1=O
6,233 to 236,CCOC(=O)c1cn(-c2ccc(F)cc2F)c2nc(N3CCC(NC(C)=O)C3)c(F)cc2c1=O (stereo unspecified)
7,> 250,NC(C(=O)O)c1ccc(C(=O)O)c(O)c1CCCc1ccccc1 (stereo unspecified)
8,98 to 98.5,CSc1nc2ccccc2n1C1CCN(CCCC(=O)c2ccc(F)cc2)CC1
9,202 to 204,CC1(C)c2cccn2-c2cc(F)c(F)cc2N1S(=O)(=O)c1ccc(O)cc1
10,40 to 44,CCOC(=O)N1CC=C(c2cc(F)c(Br)cc2F)CC1
11,147 to 150,CC(=O)Nc1ccc(Cl)c2c1CN(C)C2
12,> 300,CCn1c(N)c(C(=O)NC)c(=O)c2ccc(-c3ccc(NS(C)(=O)=O)cc3)nc21
13,108 to 110,CCCCc1c2ccccc2nc2cc(N)ccc12
14,91,COc1c(F)c(F)c(C2=CC(=O)NC2=O)c(F)c1F
15,174 to 176,O=C(O)Cc1cc(Br)c(S(=O)(=O)c2ccc(O)c(I)c2)c(Br)c1
16,87 to 88,CCOC(=O)C1=C(C)NC(C=O)=C(C(=O)OCC)C1c1ccccc1Cl (stereo unspecified)
17,178 to 180,CCOC(=O)C1CN2c3c(cc4ccccc4c3CCC2C)C1=O (stereo unspecified)
18,140 to 142,C=C(C)c1cc(NC(=O)N2CCN(c3cc(C)cc(C)c3)CC2)c(OC)nc1C
19,151 to 153,Cc1ccncc1C(O)c1ccc2cc(CO)ccc2c1 (stereo unspecified)

row,melting point [°C],Compound
1,109 to 111,CCOCC1(F)CCN(c2ccc(N3C[C@H](CNC(C)=O)OC3=O)cc2F)CC1
2,101 to 102,CCC(O)c1cc(-c2ccccc2)no1 (stereo unspecified)
3,> 240,CON1CCC2(CC1)NC(=O)C(c1c(C)cc(C#C[Si](C)(C)C)cc1C)=C2O
4,157 to 158,Cc1ccc2nc(-c3ccccc3C#N)n(C)c(=O)c2c1
5,180 to 181,CCCCc1nc(Cl)c(CO)n1Cc1ccc(-c2cccc(C(=O)O)c2)cc1
6,157 to 159,Nc1ccc2oc(-c3cccc(O)c3)cc(=O)c2c1
7,> 250,CCn1cc(C(=O)O)c(=O)c2cc(F)c(O)cc21
8,161,Cc1c(N2CCC(N(C)Cc3ccccc3)C2)c(F)cc2c(=O)c(C(=O)O)cn(C3CC3)c12 (stereo unspecified)
9,103 to 104,CCOC(=O)C(=C(c1ccc(F)cc1)c1ccc(F)cc1)n1nnnc1C
10,200 to 201,Cn1cc(CS(C)(=O)=O)c(=O)c2ccccc21
11,68 to 69,CCc1ccc(C(=O)CCCSc2nnnn2C)cc1
12,198 to 199,COc1ccc(-n2c(=O)oc3ccc(-c4ccc(F)cc4F)cc3c2=O)cc1OC
13,182,CCOC(=O)N1CCc2nc3cccc(N)c3c(C)c2CC1
14,139 to 144,CCOC(=O)C(=O)Nc1sc(-c2ccccc2)cc1[N+](=O)[O-]
15,160 to 165,CCCCNS(=O)(=O)c1cc(C(=O)O)cc(Cl)c1Cl
16,165,Cn1c(CC(=O)O)ccc1C(=O)c1cccc(Cl)c1
17,133 to 134,CCCCS(=O)(=O)NC(=O)CCc1cc(OC(C)C)nn1Cc1ccc(Cl)cc1Cl
18,91 to 94,C=C1CCC2C3CC(=O)c4cc(OC(C)=O)ccc4C3CCC12C (stereo unspecified)
19,172 to 173,CCOC(=S)c1cnc(C)nc1NC(=O)Nc1ccccc1Cl
